In ChEMBL document CHEMBL4368927, “A review on flavones targeting serine/threonine protein kinases for potential anticancer drugs” (Bioorg Med Chem, 2019) one finds inhibition, IC50 and ED50 data, which are given here for eleven molecules.

As usually defined, the inhibition is how much of the control response was suppressed. The pIC50 is the negative decadic logarithm of the IC50, by convention in mol/L. Broadly, the IC50 is the concentration that inhibits the measured activity by half.

In assay [1] the target is Protein kinase C (PKC) (Rattus norvegicus) (UniProt P05696+P68403+P09216+P63319+P09215+Q64617+Q9WTQ0+P09217). Nature of the assay: Inhibition of PKC in rat brain homogenate at 50 uM using FKKSFKL-NH2 as substrate preincubated for 10 mins followed by substrate addition and measured after 5 mins in presence of [gamma-32P]ATP by liquid scintillation counting analysis relative to control. In kind it is tissue-based.

Assay [2] addresses Cyclin-dependent kinase 2/cyclin E1 (Homo sapiens, UniProt P24941). Nature of the assay: Inhibition of human CDK2/cyclin E expressed in baculovirus expression system after 30 mins in presence of [gamma-33P]ATP by scintillation counting analysis.
Another assay concerns HT-29. Put plainly: Antiproliferative activity against human HT-29 cells assessed as reduction in [3H]-thymidine incorporation after 48 hrs by liquid scintillation assay. Type of assay: functional, cell-based. (Dividing cells build labelled thymidine or BrdU into new DNA.)
A further assay deals with Protein kinase C (PKC). Nature of the assay: Inhibition of PKC in rat brain homogenate using FKKSFKL-NH2 as substrate preincubated for 10 mins followed by substrate addition and measured after 5 mins in presence of [gamma-32P]ATP by liquid scintillation counting analysis. Type of assay: tissue-based.
In assay [3] the target is Cyclin-dependent kinase 4 (Homo sapiens, UniProt P11802). Nature of the assay: Inhibition of human CDK4.
Assay [4] addresses Cyclin-dependent kinase 6 (Homo sapiens, UniProt Q00534). Put plainly: Inhibition of human CDK6.
Assay [5] concerns the target Cyclin-dependent kinase 1 (Homo sapiens, UniProt P06493). Put plainly: Inhibition of human CDK1.
The target in a further assay is CDK7/Cyclin H/MNAT1 (Homo sapiens, UniProt P50613). Put plainly: Inhibition of recombinant human full length C-terminal His6-tagged and N-terminal GST-tagged CDK7/cyclinH/MAT1 expressed in baculovirus Sf21 insect cells after 40 mins in presence of [gamma-32P]ATP by scintillation counting analysis.
The nature of assay [6]: Inhibition of CDK6/cyclin D (unknown origin). Details: species or system Homo sapiens.
The target of assay [7] is Proto-oncogene tyrosine-protein kinase Src (Homo sapiens, UniProt P12931). Put plainly: Inhibition of pp60 src (unknown origin).
Assay [8] is described as follows: Inhibition of protein kinase A (unknown origin). The arrangement: species or system Homo sapiens.
In assay [9] the target is Mitogen-activated protein kinase 3 (Homo sapiens, UniProt P27361). Put plainly: Inhibition of Erk-1 (unknown origin).
Assay [10] addresses Serine/threonine-protein kinase pim-1 (Homo sapiens) (UniProt P11309).
Description: Inhibition of PIM1 in human RWPE2 cells assessed as inhibition of cell growth

Molecules are shown by their SMILES. pIC50: −log10 of the molar value.

Chain of Serine/threonine-protein kinase pim-1 (Homo sapiens) (P11309 whole entry, looked up): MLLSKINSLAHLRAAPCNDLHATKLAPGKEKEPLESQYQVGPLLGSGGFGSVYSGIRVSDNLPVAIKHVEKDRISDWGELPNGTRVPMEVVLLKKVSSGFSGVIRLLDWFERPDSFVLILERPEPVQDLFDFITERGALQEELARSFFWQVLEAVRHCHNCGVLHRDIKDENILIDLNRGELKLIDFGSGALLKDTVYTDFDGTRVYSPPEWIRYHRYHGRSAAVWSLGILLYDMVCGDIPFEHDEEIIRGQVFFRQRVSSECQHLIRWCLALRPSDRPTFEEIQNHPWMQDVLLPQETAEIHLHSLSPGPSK
Chain of Mitogen-activated protein kinase 3 (P27361 whole entry): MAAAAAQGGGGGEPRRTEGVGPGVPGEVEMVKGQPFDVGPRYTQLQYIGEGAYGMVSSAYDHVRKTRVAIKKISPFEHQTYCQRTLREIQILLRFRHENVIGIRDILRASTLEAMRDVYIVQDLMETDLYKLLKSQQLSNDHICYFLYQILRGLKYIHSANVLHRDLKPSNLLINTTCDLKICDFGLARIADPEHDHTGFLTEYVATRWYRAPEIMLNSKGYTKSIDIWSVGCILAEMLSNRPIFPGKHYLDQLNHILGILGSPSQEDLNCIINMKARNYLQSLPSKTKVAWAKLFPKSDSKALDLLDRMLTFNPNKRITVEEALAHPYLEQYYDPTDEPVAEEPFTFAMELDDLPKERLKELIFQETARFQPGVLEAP
Chain of Proto-oncogene tyrosine-protein kinase Src (P12931 2-536 limits assumed): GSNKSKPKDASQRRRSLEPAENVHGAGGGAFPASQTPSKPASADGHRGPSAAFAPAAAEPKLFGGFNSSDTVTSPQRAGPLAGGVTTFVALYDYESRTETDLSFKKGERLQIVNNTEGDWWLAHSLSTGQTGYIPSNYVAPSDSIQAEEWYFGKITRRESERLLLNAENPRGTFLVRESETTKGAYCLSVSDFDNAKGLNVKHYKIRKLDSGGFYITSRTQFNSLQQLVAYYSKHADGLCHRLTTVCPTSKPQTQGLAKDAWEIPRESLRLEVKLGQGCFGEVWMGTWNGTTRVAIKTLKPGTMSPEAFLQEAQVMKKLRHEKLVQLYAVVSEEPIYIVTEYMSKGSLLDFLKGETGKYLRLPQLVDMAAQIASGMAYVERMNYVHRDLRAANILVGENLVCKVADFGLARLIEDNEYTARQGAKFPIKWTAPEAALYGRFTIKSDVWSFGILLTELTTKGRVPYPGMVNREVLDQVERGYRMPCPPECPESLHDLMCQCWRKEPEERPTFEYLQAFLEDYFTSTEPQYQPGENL
Chain of Cyclin-dependent kinase 1 (P06493 whole entry): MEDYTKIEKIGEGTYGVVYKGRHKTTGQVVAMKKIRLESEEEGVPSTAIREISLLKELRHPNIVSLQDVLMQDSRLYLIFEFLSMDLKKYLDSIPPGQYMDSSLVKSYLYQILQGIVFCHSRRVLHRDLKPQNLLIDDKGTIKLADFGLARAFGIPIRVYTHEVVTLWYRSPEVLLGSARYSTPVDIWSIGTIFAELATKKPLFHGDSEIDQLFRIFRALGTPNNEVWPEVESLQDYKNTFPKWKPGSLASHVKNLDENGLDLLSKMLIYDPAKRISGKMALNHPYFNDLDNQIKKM
Chain of Cyclin-dependent kinase 4 (P11802 whole entry): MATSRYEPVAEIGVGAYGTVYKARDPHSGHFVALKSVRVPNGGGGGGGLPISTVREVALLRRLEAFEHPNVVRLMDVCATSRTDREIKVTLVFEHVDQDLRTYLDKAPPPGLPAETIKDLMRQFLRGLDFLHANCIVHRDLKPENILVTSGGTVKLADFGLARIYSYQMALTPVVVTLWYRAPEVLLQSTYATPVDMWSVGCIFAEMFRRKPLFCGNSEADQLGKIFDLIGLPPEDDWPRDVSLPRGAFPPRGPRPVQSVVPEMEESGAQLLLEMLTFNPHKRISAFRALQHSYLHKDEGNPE
Chain of Cyclin-dependent kinase 6 (Q00534 whole entry): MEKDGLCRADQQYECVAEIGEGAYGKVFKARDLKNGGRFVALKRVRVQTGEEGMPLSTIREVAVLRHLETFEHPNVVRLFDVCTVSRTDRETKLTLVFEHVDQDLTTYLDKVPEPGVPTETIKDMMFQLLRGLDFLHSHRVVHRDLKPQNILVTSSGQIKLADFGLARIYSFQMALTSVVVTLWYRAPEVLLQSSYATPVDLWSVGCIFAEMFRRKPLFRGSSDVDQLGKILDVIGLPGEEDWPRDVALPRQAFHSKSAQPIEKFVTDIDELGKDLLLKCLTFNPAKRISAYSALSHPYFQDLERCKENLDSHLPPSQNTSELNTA
Chain of CDK7/Cyclin H/MNAT1 (P51946 whole entry): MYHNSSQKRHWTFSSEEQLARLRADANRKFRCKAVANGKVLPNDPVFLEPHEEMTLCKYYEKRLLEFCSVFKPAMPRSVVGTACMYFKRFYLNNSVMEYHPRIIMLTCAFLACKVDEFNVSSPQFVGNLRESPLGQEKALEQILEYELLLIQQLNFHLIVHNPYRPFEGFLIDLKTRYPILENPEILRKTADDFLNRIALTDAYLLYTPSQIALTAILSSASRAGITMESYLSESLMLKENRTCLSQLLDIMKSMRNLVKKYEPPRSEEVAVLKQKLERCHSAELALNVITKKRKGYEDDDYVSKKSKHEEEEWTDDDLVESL
Chain of CDK7/Cyclin H/MNAT1 (P50613 whole entry): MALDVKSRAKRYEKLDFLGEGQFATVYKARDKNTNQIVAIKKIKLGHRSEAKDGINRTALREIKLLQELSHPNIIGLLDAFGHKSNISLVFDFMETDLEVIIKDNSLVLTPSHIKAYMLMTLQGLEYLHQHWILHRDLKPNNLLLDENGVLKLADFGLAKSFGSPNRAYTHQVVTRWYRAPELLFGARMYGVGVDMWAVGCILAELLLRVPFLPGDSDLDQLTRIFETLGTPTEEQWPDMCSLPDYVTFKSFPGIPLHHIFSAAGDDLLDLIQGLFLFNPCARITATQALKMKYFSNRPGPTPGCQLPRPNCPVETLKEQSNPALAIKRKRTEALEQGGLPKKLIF
Chain of CDK7/Cyclin H/MNAT1 (P51948 whole entry, further chain): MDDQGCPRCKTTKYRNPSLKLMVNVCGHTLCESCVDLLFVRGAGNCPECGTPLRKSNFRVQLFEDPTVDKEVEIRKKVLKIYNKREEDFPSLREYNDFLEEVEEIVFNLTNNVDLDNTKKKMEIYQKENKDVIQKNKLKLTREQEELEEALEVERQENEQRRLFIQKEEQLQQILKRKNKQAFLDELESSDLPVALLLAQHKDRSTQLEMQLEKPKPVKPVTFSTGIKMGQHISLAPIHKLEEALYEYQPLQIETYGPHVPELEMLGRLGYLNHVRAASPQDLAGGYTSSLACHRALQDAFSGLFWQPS

Take `O=c1c(O)c(-c2ccc(O)c(O)c2)oc2cc(O)ccc12`: in assay [1], the inhibition is 85%. `CN1CC[C@@H](c2c(O)cc(O)c3c(=O)cc(-c4ccc([N+](=O)[O-])cc4Cl)oc23)[C@@H]1CO`: the pIC50 is 5.77 in assay [2] and 5.92 with HT-29. Consider `O=c1c(O)c(-c2cc(O)c(O)c(O)c2)oc2cc(O)cc(O)c12` [MYRICETIN], for which the IC50 at Protein kinase C (PKC) was found to be 7.8 µM. On to `CN1CC[C@@H](c2c(O)cc(O)c3c(=O)cc(-c4ccc(C(F)(F)F)cc4Cl)oc23)[C@@H]1CO` [VORUCICLIB], for which the negative-log IC50 (pIC50) in assay [3], in [4] and in [5] was more than 7.00 in each case. As to `COc1c(O)cc(O)c2c(=O)cc(-c3ccccc3)oc12` [WOGONIN], the negative-log IC50 (pIC50) at CDK7/Cyclin H/MNAT1 was 4.91.

As to `CN1CC[C@H](c2c(O)cc(O)c3c(=O)cc(-c4ccccc4Cl)oc23)[C@H](O)C1` [ALVOCIDIB], the pIC50 in assay [6] is 7.22; in assay [7], 4.47; in [8], 3.84 to 3.91; in assay [9], 4.80. Take `O=c1cc(-c2ccc(O)c(O)c2)oc2cc(O)cc(O)c12`: in assay [1], the inhibition was found to be 70%.

Take `O=c1c(O)c(-c2ccc(O)c(O)c2)oc2cc(O)c(O)c(O)c12`: in assay [10], the ED50 came to 5.5 µM. `O=c1c(O)c(-c2ccc(O)c(O)c2)oc2cc(O)cc(O)c12`: in [1], the inhibition was determined as 64%. With `CN1CC[C@@H](c2c(O)cc(O)c3c(=O)cc(-c4ccccc4Cl)oc23)[C@@H]1CO`, the negative-log IC50 (pIC50) is 5.55 in [2] and 6.24 with HT-29. Take `CN1CC[C@H](c2c(O)cc(O)c3c(=O)cc(-c4ccccc4Cl)oc23)[C@H]1CO`: the pIC50 in assay [2] was 4.68; in the assay with HT-29, 4.75.
